Test results reported in article PMC5125710, “Mechanistic Studies and Modeling Reveal the Origin of Differential Inhibition of Gag Polymorphic Viruses by HIV-1 Maturation Inhibitors” (PLoS Pathogens, 2016).
Values joined by “and” are separate entries in the source; they are usually repeats but may differ in a detail not shown here. Equal values may be shown once. Read-outs that look alike come from different tables or passages of the source.

Columns and labels:
[1] = target: T1, V370A HIV-1 Gag VLPs (Human immunodeficiency virus type 1 group M subtype B, UniProt P03348, V370A); assay: biochemical; assay type: binding; parameters: Kd FC vs. WT: unit not given beside the values
T1 construct: constructed to encode full length HIV-1 LAI Gag; made in house; host or cells: 293T cells, transfected with pGagOpt plasmid

[2] = tested on: HIV-1 NLRepRlucP373S V370A/Δ371T; assay: microbe, parasite or virus in culture; assay type: cell-based; conditions: for EC50: Human immunodeficiency virus 1, MC assay
[3] = tested on: HIV-1 NLRepRlucP373S ΔT371; assay: microbe, parasite or virus in culture; assay type: cell-based; conditions: for EC50: Human immunodeficiency virus 1, MC assay
[4] = tested on: HIV-1 NLRepRlucP373S V362I; assay: microbe, parasite or virus in culture; assay type: cell-based; conditions: for EC50: Human immunodeficiency virus 1, V362I virus; for log10 reduction in virus, multiple cycle antiviral assay, maximal inhibition: V362I, calculated from MC MPI
[5] = tested on: HIV-1 NLRepRlucP373S ΔV370; assay: microbe, parasite or virus in culture; assay type: cell-based; conditions: for EC50: Human immunodeficiency virus 1; for log10 reduction in virus, multiple cycle antiviral assay, maximal inhibition: ΔV370, calculated from MC MPI
[6] = tested on: HIV-1 NLRepRlucP373S T371A; assay: microbe, parasite or virus in culture; assay type: cell-based; conditions: Human immunodeficiency virus 1, MC assay
[7] = target: T2, V362I HIV-1 Gag VLPs (Human immunodeficiency virus type 1 group M subtype B, UniProt P03348, V362I); assay: biochemical; assay type: binding; parameters: Kd FC vs. WT: unit not given beside the values
T2 construct: constructed to encode full length HIV-1 LAI Gag; made in house; host or cells: 293T cells, transfected with pGagOpt plasmid

[8] = tested on: HIV-1 NLRepRlucP373S V370M; assay: microbe, parasite or virus in culture; assay type: cell-based; conditions: for EC50: Human immunodeficiency virus 1, MC assay
[9] = target: T3, WT HIV-1 Gag VLPs (Human immunodeficiency virus type 1 group M subtype B, UniProt P03348); assay: SPA radiolabeled competition binding assay, WT VLPs; parameters: Kd FC vs. WT: unit not given beside the values
T3 construct: constructed to encode full length HIV-1 LAI Gag; made in house; host or cells: 293T cells, transfected with pGagOpt plasmid; VLPs pelleted from supernatant

[10] = tested on: LAI pseudotyped NLRepRlucP373 Δenv; assay type: cell-based; conditions: for Inhibition of luciferase production: compound added only at the infection stage (second step); for Inhibition of luciferase activity in the infection stage: compound added at the transfection step (first step)
[11] = tested on: HIV-1 NLRepRlucP373S (WT); assay: microbe, parasite or virus in culture; assay type: cell-based; conditions: for MC Assay MPI (%): maximal percent inhibition at two highest drug concentrations
[12] = tested on: HIV-1 NLRepRlucP373S V370A; assay: microbe, parasite or virus in culture; assay type: cell-based; conditions: for EC50: Human immunodeficiency virus 1, V370A virus; for log10 reduction in virus, multiple cycle antiviral assay, maximal inhibition: V370A, calculated from MC MPI
[13] = tested on: HIV-1 NLRepRlucP373S V370A; assay type: cell-based; conditions: for SC Assay MPI (%): V370A virus; for log10 reduction in virus, single cycle antiviral assay, maximal inhibition: V370A, calculated from SC MPI
[14] = tested on: HIV-1 NLRepRlucP373S ΔV370; assay type: cell-based; conditions: for log10 reduction in virus, single cycle antiviral assay, maximal inhibition: ΔV370, calculated from SC MPI; for SC Assay MPI (%): ΔV370 virus
[15] = target: CA/SP1 cleavage of ΔV370 Gag VLPs by HIV-1 protease (Human immunodeficiency virus type 1 group M subtype B, UniProt P03348, DEL370-370); assay: HIV-1 VLP protease cleavage assay (LC/MS), ΔV370 VLPs; assay type: biochemical; conditions: 3 μM MI
[16] = target: T4, CA/SP1 cleavage of WT Gag VLPs by HIV-1 protease (Human immunodeficiency virus type 1 group M subtype B, UniProt P03348); assay type: biochemical; conditions: 3 μM MI
T4 construct: constructed to encode full length HIV-1 LAI Gag; made in house; host or cells: Gag VLPs from transfected 293T cells

[17] = from mean C24 and free fraction of 0.14
[18] = tested on: HIV-1; conditions: cited from earlier work
[19] = tested on: HIV-1 NLRepRlucP373S (WT); assay type: cell-based; conditions: for SC Assay MPI (%): WT virus; for log10 reduction in virus, single cycle antiviral assay, maximal inhibition: WT, calculated from SC MPI
[20] = target: ΔV370 HIV-1 Gag VLPs (Human immunodeficiency virus type 1 group M subtype B, UniProt P03348, DEL370-370); assay: SPA radiolabeled competition binding assay, ΔV370 VLPs; parameters: Kd FC vs. WT: unit not given beside the values; conditions: for Kd FC vs. WT: ΔV370 VLP
[21] = tested on: HIV-1 NLRepRlucP373S Q369H; assay: microbe, parasite or virus in culture; assay type: cell-based; conditions: Human immunodeficiency virus 1, MC assay

Row | SMILES | Kd FC vs. WT ([1]; V370A VLP) | EC50 [2] [nM] | EC50 [3] [nM] | EC50 ([4]; MC assay) [nM] | MC Assay MPI (%) ([4]; V362I virus) | EC50 ([5]; ΔV370 virus, MC assay) [nM] | MC Assay MPI (%) ([5]; ΔV370 virus) | EC50 [6] [nM] | Kd FC vs. WT ([7]; V362I VLP) | EC50 [8] [nM] | Kd FC vs. WT ([9]; WT VLP) | Inhibition of luciferase production [10] | MC Assay MPI (%) ([11]; WT virus) | EC50 ([12]; MC assay) [nM] | MC Assay MPI (%) ([12]; V370A virus) | log10 reduction in virus, multiple cycle antiviral assay, maximal inhibition [12] [log10] | SC Assay MPI (%) [13] | log10 reduction in virus, single cycle antiviral assay, maximal inhibition [13] [log10] | SC Assay MPI (%) [19] | Inhibition of luciferase activity in the infection stage [10] | also measured
1 | C=C(C)[C@@H]1CC[C@]2(C(=O)O)CC[C@]3(C)[C@H](CC[C@@H]4[C@@]5(C)CC=C(c6ccc(C(=O)O)cc6)C(C)(C)[C@@H]5CC[C@]43C)[C@@H]12 [BMS-1] | 7.0 | > 10000 | 292 | 213 | 71.4 +/- 5.4% and 71.4% | > 6000 | 3.7 +/- 2.9% and 3.7% | 28 | 1.9 | > 4000 | 1.0 | – | – | – | – | – | – | – | – | – | Kd ([1]; V370A VLP, competition displacement of [3H]-BMS-977660, read-out: Kd): 177 nM; Kd ([7]; V362I VLP, competition displacement of [3H]-BMS-977660, read-out: Kd): 49 nM; Kd ([9]; WT VLP, competition displacement of [3H]-BMS-977660, read-out: Kd): 25.4 nM
2 | COc1ccnc2[nH]cc(C(=O)C(=O)N3CCN(C(=O)c4ccccc4)C[C@H]3C)c12 [BMS-378806, 4-benzoyl-1-[(4-methoxy-1H-pyrrolo[2,3-b]pyridin-3-yl)oxoacetyl]-2-(R)-methylpiperazine] | – | – | – | – | – | – | – | – | – | – | – | fully active | – | – | – | – | – | – | – | – | –
3 | C=C(C)[C@@H]1CC[C@]2(NCCN3CCS(=O)(=O)CC3)CC[C@]3(C)[C@H](CC[C@@H]4[C@@]5(C)CC=C(c6ccc(C(=O)O)cc6)C(C)(C)[C@@H]5CC[C@]43C)[C@@H]12 [BMS-955176] | 2 | 6.6 | 7.3 | 4.5 | 93.8 +/- 1.8% and 93.8% | 13 | 91.9 +/- 4.4% and 92% and 91.9% | 2 | 1.3 | 2.8 | 1.0 | – | 100 +/- 0.4% and 100% | 2.7 | 98.2 +/- 1.3% and 98.2% | -1.73 | 76.5 +/- 3.0% and 76.5% | -0.64 | 93.0 +/- 2.5% and 93% | inhibiting luciferase production only when added in the first step | log10 reduction in virus, multiple cycle antiviral assay, maximal inhibition ([11]; WT, calculated from MC MPI): < -2.00 log10; Kd [1]: 6.5 nM; log10 reduction in virus, multiple cycle antiviral assay, maximal inhibition [4]: -1.20 log10; log10 reduction in virus, multiple cycle antiviral assay, maximal inhibition [5]: -1.09 log10; log10 reduction in virus, single cycle antiviral assay, maximal inhibition [14]: -0.27 log10; SC Assay MPI (%) [14]: 45.9%; Inhibition of CA/SP1 cleavage ([15]; 4 hour time point): 13%; Inhibition of CA/SP1 cleavage ([16]; 4 hours): sustained inhibition; Mean free concentration [17]: 0.213 µM; Kd [7]: 4.3 nM; Clinical VLR, maximal median HIV-1 log10 RNA reduction ([18]; subtype B Gag polymorphs (compared to V370A, V362I), 40 mg): -1.71 log10; Clinical VLR, maximal median HIV-1 log10 RNA reduction ([18]; subtype B WT genotype, 40 mg QD, 10 day monotherapy): -1.75 log10; Clinical VLR, maximal median HIV-1 log10 RNA reduction ([18]; subtype C viruses (compared to ΔV370), 40 mg): -1.35 log10; log10 reduction in virus, single cycle antiviral assay, maximal inhibition [19]: -1.15 log10; Kd [20]: 33.6 nM; Kd FC vs. WT [20]: 10; Kd [9]: 3.2 nM
4 | C=C(C)[C@@H]1CC[C@]2(C(=O)O)CC[C@]3(C)[C@H](CC[C@@H]4[C@@]5(C)CC[C@H](OC(=O)CC(C)(C)C(=O)O)C(C)(C)[C@@H]5CC[C@]43C)[C@@H]12 [BVM, bevirimat, reference compound] | 9.1 | – | – | – | 81.3 +/- 2.0% and 81.3% | > 10000 | 9.2+/- 6.3% and 9% and 9.2% | 40 | 2.9 | – | 1.0 | – | – | – | 65.4 +/- 3.8% and 65.4% | -0.46 | 19% and 19.0 +/- 3.5% | -0.08 | 82.3 +/- 2.7% and 82% and 82.3% | inhibiting luciferase production only when added in the first step | EC50 [21]: 7 nM; log10 reduction in virus, multiple cycle antiviral assay, maximal inhibition [4]: -0.73 log10; log10 reduction in virus, multiple cycle antiviral assay, maximal inhibition [5]: -0.04 log10; log10 reduction in virus, single cycle antiviral assay, maximal inhibition [14]: 0.06 log10; SC Assay MPI (%) [14]: -26% and -25.6%; Inhibition of CA/SP1 cleavage ([15]; whole time course): not inhibitory at any time point; Inhibition of CA/SP1 cleavage ([16]; 2 hours): 39%; Inhibition of CA/SP1 cleavage ([16]; 4 hours): 1%; log10 reduction in virus, single cycle antiviral assay, maximal inhibition [19]: -0.71 log10; Kd FC vs. WT [20]: 48
5 | Cc1c(O)cccc1C(=O)N[C@@H](CSc1ccccc1)[C@H](O)CN1C[C@H]2CCCC[C@H]2C[C@H]1C(=O)NC(C)(C)C [NFV, nelfinavir, reference compound] | – | 5.7 | 2 | 4.3 | 100% | 5.2 | – | – | – | 4.5 | – | luciferase production is not inhibited | 100% | 4.1 | 99.9% | – | 99.0% | – | 99.3% | luciferase activity is inhibited | EC50 ([11]; Human immunodeficiency virus 1, WT virus, MC assay): 4.3 nM; FC = EC50 (SDM)/EC50 (WT) ([11]; WT virus, MC assay): 1.0; FC = EC50 (SDM)/EC50 (WT) ([2]; MC assay): 1.3; FC = EC50 (SDM)/EC50 (WT) ([12]; V370A virus, MC assay): 1.0; FC = EC50 (SDM)/EC50 (WT) ([3]; ΔT371 virus, MC assay): 0.5; FC = EC50 (SDM)/EC50 (WT) ([4]; V362I virus, MC assay): 1.0; FC = EC50 (SDM)/EC50 (WT) ([5]; ΔV370 virus, MC assay): 1.2; FC = EC50 (SDM)/EC50 (WT) ([8]; V370M virus, MC assay): 1.0
